# Test: Cytotoxicity against human SV5A8 cells expressing SV40 binding sites driving firefly/renilla luciferase reporter gene after 24 hrs by luminometer
# Type: cell-based
# Settings: SV5A8, 24 h
row,SMILES,IC50 [µM]
1,CNc1nc(NCc2ccc(NC(=O)c3ccc(Cl)cc3F)cc2)c2cc(C)ccc2n1,> 2.78
2,Cc1ccc2nc(N(C)C)nc(NCc3ccc(NC(=O)c4ccc(F)cc4)cc3)c2c1,5.82 to 11.6
3,Cc1cc(C)c2nc(N3CCN[C@@H](C)C3)nc(NCc3ccc(NC(=O)c4ccc(F)cc4)cc3)c2c1,> 5.01
4,CNc1nc(NCc2ccc(NC(=O)c3cccnc3)cc2)c2cc([N+](=O)[O-])ccc2n1,> 23.3
5,Cc1ccc2c(NCc3ccc(NC(=O)C4CCN(Cc5ccccc5)CC4)cc3)nc(N3CCC3)nc2c1,9.6 to 17.3
6,CNc1nc(NCc2ccc(NC(=O)c3ccc(Cl)nc3)cc2)c2cccc(C)c2n1,2.89 to 21.6
